# According to paper PMC9000710, “Synthesis and Hemostatic Activity of New Amide Derivatives” (Molecules, 2022):
# Entries after “also recorded” stand apart in the source; their conditions may differ.
# Tests used:
# [1] = system: human blood plasma; assay: Clot formation and fibrinolysis (CFF) assay; type: biochemical; conditions: for Amax (maximum of fibrin clot absorbance at 360 nm) / VmaxC (of Fibrin Polymerization) / VmaxF (of Fibrin Clot Lysis): control plasma assumed as 100%, mean ± SD, n = 5–7
# In short: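 Human plasma preincubated 15 min at 37 °C with test substances (10, 25, 50 mg/L final), then mixed with thrombin (0.75 U/mL), t-PA (225 ng/mL) and 7.5 mM CaCl2 in TBS pH 7.4. Absorbance at 360 nm followed 60 min at 37 °C; VmaxC, Amax and VmaxF derived.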
# [2] = system: erythrocytes; assay: Hemolysis assay (stability of erythrocytes); type: cell-based, human; conditions: c 50 mg/L, 240 min
# Experimental: (§1) Heparinized whole blood was used from a healthy volunteer. The whole blood (10 mL) was diluted with saline solution (90 mL). For each UV-Vis measurement, 2.5 mL of diluted blood was used. For each blood sample, 1 mL of a saline solution containing hydrochlorides 1–8 at concentrations of 5, 50, and 500 mg/L was added. As a control were used blood samples with the addition of 1% solution of DMSO in saline and 1% solution of SDS in saline. In all cases, the measurements were repeated twice for each concentration. […] The cells were centrifuged, and the absorbance of the supernatant, which contained plasma and lysed erythrocytes, was measured at 540 nm. The percentage of lysis was calculated from a standard curve of lysed erythrocytes treated with SDS [52].
# [3] = Hemolysis assay (stability of erythrocytes); type: cell-based, human; conditions: male, human, heparinized whole blood diluted with saline (erythrocytes)
# Experimental: as §1
# [4] = system: human blood plasma; assay: Prothrombin time (PT) clotting assay; type: biochemical
# [5] = system: human blood plasma; assay: Activated partial thromboplastin time (aPTT) clotting assay; type: biochemical
# [6] = system: human blood plasma; assay: Thrombin time (TT) clotting assay; type: biochemical
structure (smiles),measurement,setting,value
"Cl.NCC(=O)NCCCCCC(=O)O [Amide 8, 6-(2-Aminoacetamido)hexanoic acid hydrochloride]",Amax (maximum of fibrin clot absorbance at 360 nm),[1]; 10 mg/L,104.83 ± 2.83 %
same,VmaxC (of Fibrin Polymerization),[1]; 10 mg/L,101.96 ± 6.62%
same,VmaxF (of Fibrin Clot Lysis),[1]; 10 mg/L,82.96 ± 12.49 %
same,Amax (maximum of fibrin clot absorbance at 360 nm),[1]; 25 mg/L,100.18 ± 3.77%
same,VmaxC (of Fibrin Polymerization),[1]; 25 mg/L,100.98 ± 6.60%
same,VmaxF (of Fibrin Clot Lysis),[1]; 25 mg/L,96.07 ± 14.56%
same,Amax (maximum of fibrin clot absorbance at 360 nm),[1]; 50 mg/L,108.64 ± 11.94%
same,VmaxC (of Fibrin Polymerization),[1]; 50 mg/L,105.67 ± 8.34%
same,VmaxF (of Fibrin Clot Lysis),[1]; 50 mg/L,66.90 ± 23.22 %
same,effect on fibrin polymerization (VmaxC) in words,"[1]; tested at 10, 25, 50 mg/L",did not influence
same,Hemolysis [%],[2],0.3%
same,"hemolysis at 45 min, 5 mg/L","[3]; c 5 mg/L, 45 min",0.08%
same,"hemolysis at 120 min, 5 mg/L","[3]; c 5 mg/L, 120 min",0.74%
same,"hemolysis at 45 min, 50 mg/L","[3]; c 50 mg/L as printed in the third concentration block of amides 7 and 8, 45 min",0%
same,"hemolysis at 120 min, 50 mg/L","[3]; c 50 mg/L as printed in the third concentration block of amides 7 and 8, 120 min",0.47%
same,"hemolysis at 240 min, 50 mg/L","[3]; c 50 mg/L as printed in the third concentration block of amides 7 and 8, 240 min",0.37%
same,"hemolysis at 45 min, 50 mg/L","[3]; c 50 mg/L, 45 min",0.44%
same,"hemolysis at 120 min, 50 mg/L","[3]; c 50 mg/L, 120 min",0.71%
same,"hemolysis at 240 min, 50 mg/L","[3]; c 50 mg/L, 240 min",0.36%
same,PT Time [% of Control],[4]; c 10 mg/L,93.0 ± 2.2 % of Control
same,PT Time [% of Control],[4]; c 25 mg/L,95.5 ± 4.3 % of Control
same,PT Time [% of Control],[4]; c 50 mg/L,97.2 ± 3.2 % of Control
same,"prothrombin time, effect versus control in words","[4]; concentration not specified (10, 25, 50 mg/L tested)",slightly but statistically significantly reduced
same,"prothrombin time, effect versus control in words",[4]; lowest concentration (10 mg/L),fell only slightly; also recorded: most effectively lowered
same,melting point,,120 to 123 °C
same,aPTT Time [% of Control],[5]; c 10 mg/L,95.1 ± 7.5 % of Control
same,aPTT Time [% of Control],[5]; c 25 mg/L,97.7 ± 5.9 % of Control
same,aPTT Time [% of Control],[5]; c 50 mg/L,95.2 ± 7.3 % of Control
same,TT Time [% of Control],[6]; c 10 mg/L,100.0 ± 7.0 % of Control
same,TT Time [% of Control],[6]; c 25 mg/L,94.3 ± 1.3 % of Control
same,TT Time [% of Control],[6]; c 50 mg/L,92.4 ± 5.2 % of Control
same,"TT, effect versus control in words","[6]; c = 25, and 50 mg/L",shorter TT than the control sample
